What was measured:
Experiment in all cases: combination Emax (second highest fraction inhibited in the dose matrix, 72 h); higher = more inhibition; extreme values may be limits of the assay
[1] = system: 647-V (Bladder Carcinoma)
In short: (§1)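 Cell lines grown in DMEM/F12 or RPMI with 10% FBS were plated in 1536-well plates and held 24 hours at 37°C, 5% CO2 before 72 hours of exposure to two-drug dose matrices, with DMSO typically at 0.2%. CellTiter-Glo 2.0 luminescence gave viability, which was converted to inhibition. Vehicle wells were set to 0 and blank wells to 1. Combination Emax is the second-highest inhibition in the matrix, and Bliss excess is the observed combination effect minus the expected EA + EB − EA·EB, where EA and EB are the single-agent effects.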

[2] = system: CAL-39 (Other Solid Carcinomas)
In short: as §1

[3] = system: D-283MED (Other Solid Carcinomas)
In short: as §1

[4] = system: DOK (Oral Cavity Carcinoma)
In short: as §1

[5] = system: EFM-192A (Breast Carcinoma)
In short: as §1

[6] = system: ETK-1 (Biliary Tract Carcinoma)
In short: as §1

[7] = system: EW-22 (Ewing's Sarcoma)
In short: as §1

[8] = system: H4 (Low Grade Glioma)
In short: as §1

[9] = system: HCC38 (Breast Carcinoma)
In short: as §1

[10] = system: HCT-116 (Colorectal Carcinoma)
In short: as §1

[11] = system: HLE (Hepatocellular Carcinoma)
In short: as §1

[12] = system: MSTO-211H (Mesothelioma)
In short: as §1

[13] = system: NOMO-1 (Acute Myeloid Leukemia)
In short: as §1

[14] = system: PA-TU-8902 (Pancreatic Carcinoma)
In short: as §1

[15] = system: RCC10RGB (Kidney Carcinoma)
In short: as §1

[16] = system: SK-MEL-1 (Melanoma)
In short: as §1

[17] = system: SLVL (B-Cell Non-Hodgkin's Lymphoma)
In short: as §1

[18] = system: SW948 (Colorectal Carcinoma)
In short: as §1

[19] = system: U-118-MG (Low Grade Glioma)
In short: as §1

[20] = system: WSU-DLCL2 (B-Cell Non-Hodgkin's Lymphoma)
In short: as §1

| SMILES | combination Emax [1] | combination Emax [2] | combination Emax [3] | combination Emax [4] | combination Emax [5] | combination Emax [6] | combination Emax [7] | combination Emax [8] | combination Emax [9] | combination Emax [10] | combination Emax [11] | combination Emax [12] | combination Emax [13] | combination Emax [14] | combination Emax [15] | combination Emax [16] | combination Emax [17] | combination Emax [18] | combination Emax [19] | combination Emax [20] |
| --- | --- | --- | --- | --- | --- | --- | --- | --- | --- | --- | --- | --- | --- | --- | --- | --- | --- | --- | --- | --- |
| Cc1c2c(nn1C)CSCc1cc(n(C)n1)CSc1cc(c3ccccc3c1)OCCCc1c(C(=O)O)n(C)c3c-2c(Cl)ccc13 [AZD5991] + C=CCn1c(=O)c2cnc(Nc3ccc(N4CCN(C)CC4)cc3)nc2n1-c1cccc(C(C)(C)O)n1 [AZD1775] (first compound max 1 µM, partner max 1 µM) | 0.978 | 0.677 | 0.971 | 0.758 | 0.71 | 0.59 | 0.789 | 0.9 | 0.657 | 0.641 | 0.849 | 0.596 | 0.989 | 0.31 | 0.541 | 0.402 | 0.937 | 0.714 | 0.339 | 1 |
| Cc1c2c(nn1C)CSCc1cc(n(C)n1)CSc1cc(c3ccccc3c1)OCCCc1c(C(=O)O)n(C)c3c-2c(Cl)ccc13 [AZD5991] + CC1(C)CCC(CN2CCN(c3ccc(C(=O)NS(=O)(=O)c4ccc(NCC5CCOCC5)c([N+](=O)[O-])c4)c(Oc4cnc5[nH]ccc5c4)c3)CC2)=C(c2ccc(Cl)cc2)C1 [Venetoclax] (first compound max 1 µM, 7x7, partner max 1 µM) | 0.618 | 0.292 | 0.639 | 0.758 | 0.873 | 0.152 | 0.839 | 0.726 | 0.463 | 0.163 | 0.287 | 0.137 | 0.981 | 0.139 | 0.221 | 0.22 | 0.777 | 0.236 | 0.196 | 1 |
| Cc1c2c(nn1C)CSCc1cc(n(C)n1)CSc1cc(c3ccccc3c1)OCCCc1c(C(=O)O)n(C)c3c-2c(Cl)ccc13 [AZD5991] + CCN(CCO)CCCOc1ccc2c(Nc3cc(CC(=O)Nc4cccc(F)c4)[nH]n3)ncnc2c1 [AZD2811] (first compound max 1 µM, 7x7, partner max 1 µM) | 0.834 | 0.815 | 0.639 | 0.883 | 0.699 | 0.294 | 0.88 | 0.586 | 0.521 | 0.438 | 0.579 | 0.443 | 0.93 | 0.212 | 0.292 | 0.312 | 0.768 | 0.587 | 0.342 | 1 |
| Cc1c2c(nn1C)CSCc1cc(n(C)n1)CSc1cc(c3ccccc3c1)OCCCc1c(C(=O)O)n(C)c3c-2c(Cl)ccc13 [AZD5991] + CN(C)CCCOc1ccc(-c2ccc3ncc4c(c3c2)n(C2CCOCC2)c(=O)n4C)cn1 [AZD0156] (first compound max 1 µM, 7x7, partner max 1 µM) | 0.878 | 0.515 | 0.36 | 0.331 | 0.587 | 0.26 | 0.512 | 0.448 | 0.365 | 0.265 | 0.39 | 0.188 | 0.863 | 0.192 | 0.243 | 0.261 | 0.425 | 0.296 | 0.27 | 1 |
| Cc1c2c(nn1C)CSCc1cc(n(C)n1)CSc1cc(c3ccccc3c1)OCCCc1c(C(=O)O)n(C)c3c-2c(Cl)ccc13 [AZD5991] + C[C@@H]1COCCN1C2=NC(=NC(=C2)C3(CC3)[S@](=N)(=O)C)C4=C5C=CNC5=NC=C4 [AZD6738] (first compound max 1 µM, 7x7, partner max 10 µM) | 0.92 | 0.645 | 0.992 | 0.633 | 0.735 | 0.658 | 0.921 | 0.813 | 0.688 | 0.63 | 0.802 | 0.688 | 0.995 | 0.26 | 0.43 | 0.226 | 0.873 | 0.563 | 0.506 | 1 |
| Cc1c2c(nn1C)CSCc1cc(n(C)n1)CSc1cc(c3ccccc3c1)OCCCc1c(C(=O)O)n(C)c3c-2c(Cl)ccc13 [AZD5991] + Cc1cc2ncnn2cc1Nc1ncc2c(n1)n(C1CCOCC1)c(=O)n2C [AZD7648] (first compound max 1 µM, 7x7, partner max 10 µM) | 0.719 | 0.58 | 0.435 | 0.421 | 0.692 | 0.294 | 0.504 | 0.378 | 0.335 | 0.311 | 0.515 | 0.194 | 0.865 | 0.321 | 0.342 | 0.303 | 0.487 | 0.436 | 0.425 | 1 |
